Assay results as given in ChEMBL document CHEMBL2074220, “Interaction of human organic anion transporters with various cephalosporin antibiotics” (Eur J Pharmacol, 2002).

Legend:
[1] = molecular target: T1, Organic anion transporter 3 (Homo sapiens, UniProt Q8TCC7); assay: TP_TRANSPORTER: inhibition of Estrone sulfate uptake in OAT3-expressing S2 cells; type: functional, cell-based
T1 sequence (Q8TCC7 whole entry): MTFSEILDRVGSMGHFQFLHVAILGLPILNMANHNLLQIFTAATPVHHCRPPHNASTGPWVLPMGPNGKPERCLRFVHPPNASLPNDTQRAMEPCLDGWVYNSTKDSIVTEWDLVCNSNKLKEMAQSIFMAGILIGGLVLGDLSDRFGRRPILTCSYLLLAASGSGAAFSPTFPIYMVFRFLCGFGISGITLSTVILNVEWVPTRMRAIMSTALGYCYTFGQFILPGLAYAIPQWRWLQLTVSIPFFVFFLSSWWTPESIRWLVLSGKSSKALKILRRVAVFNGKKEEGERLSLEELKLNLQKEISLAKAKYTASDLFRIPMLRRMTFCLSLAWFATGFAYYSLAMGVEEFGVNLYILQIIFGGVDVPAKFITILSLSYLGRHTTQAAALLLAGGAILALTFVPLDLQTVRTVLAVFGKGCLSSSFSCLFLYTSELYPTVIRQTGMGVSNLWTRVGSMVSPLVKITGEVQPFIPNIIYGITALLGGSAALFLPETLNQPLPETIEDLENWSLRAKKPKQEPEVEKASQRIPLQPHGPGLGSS

[2] = molecular target: T2, Solute carrier family 22 member 11 (Homo sapiens, UniProt Q9NSA0); assay: TP_TRANSPORTER: inhibition of Estrone sulfate uptake in OAT4-expressing S2 cells; type: functional, cell-based
T2 sequence (Q9NSA0 whole entry): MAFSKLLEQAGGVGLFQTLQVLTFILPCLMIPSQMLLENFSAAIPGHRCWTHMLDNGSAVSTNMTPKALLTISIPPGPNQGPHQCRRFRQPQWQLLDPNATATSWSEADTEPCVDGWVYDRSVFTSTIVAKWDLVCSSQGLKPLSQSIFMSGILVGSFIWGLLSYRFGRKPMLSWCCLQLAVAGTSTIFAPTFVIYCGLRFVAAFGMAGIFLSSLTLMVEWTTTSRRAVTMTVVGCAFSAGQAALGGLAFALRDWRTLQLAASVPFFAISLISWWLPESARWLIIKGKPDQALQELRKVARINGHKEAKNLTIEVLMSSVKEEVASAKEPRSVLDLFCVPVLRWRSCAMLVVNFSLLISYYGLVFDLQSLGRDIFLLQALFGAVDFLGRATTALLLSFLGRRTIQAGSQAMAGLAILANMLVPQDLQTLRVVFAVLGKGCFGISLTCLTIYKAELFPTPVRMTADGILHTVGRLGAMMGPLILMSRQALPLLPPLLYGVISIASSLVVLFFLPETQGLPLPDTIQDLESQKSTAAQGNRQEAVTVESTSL

Row | Structure (SMILES) | Ki [1] [µM] | Ki [2] [µM]
1 | Cn1nnnc1SCC1=C(C(=O)O)N2C(=O)[C@@H](NC(=O)[C@H](O)c3ccccc3)[C@H]2SC1 [CEFAMANDOLE] | 46 | 
2 | Cc1nnc(SCC2=C(C(=O)O)N3C(=O)[C@@H](NC(=O)Cn4cnnn4)[C@H]3SC2)s1 [CEFAZOLIN] | 550 | 
3 | CO/N=C(\C(=O)N[C@@H]1C(=O)N2C(C(=O)O)=C(COC(C)=O)CS[C@H]12)c1csc(N)n1 [CEFOTAXIME] | 290 | 
4 | CC(=O)OCC1=C(C(=O)O)N2C(=O)[C@@H](NC(=O)Cc3cccs3)[C@H]2SC1 [CEPHALOTHIN] | 40 | 200
